Experimental data published in US20220194911A1, “NOVEL COMPOUND FOR INHIBITING HISTONE ACETYLTRANSFERASE P300 AND ANTIFIBROTIC COMPOSITION COMPRISING SAME” (REFURE LIFE SCIENCE INC., priority 2019, published 2022).

Target: HAT p300 (histone acetyltransferase p300) (Homo sapiens, UniProt Q09472)
Experiment: HAT activity kit assay (Biovision K332), inhibition of HAT activity of p300
Assay type: biochemical
Conditions: for HAT p300 activity inhibitory effect: diluted to 100 μM, FIG. 9
Method: Candidates 1 to 67, which are HAT inhibitors manufactured based on the PCAF structure, and HAT-24, HAT-26, and HAT-28 were diluted to 100 μM, and the degree of inhibition of HAT activity of p300 (inhibitory activity) was then determined using a kit for measuring HAT activity (Biovision, Cat No. K332, U.S.A) according to the method provided by the manufacturer. Here, the tissue was treated with C646 (HAT inhibitor) as a positive control.
Candidates 1 to 14 having a good HAT activity inhibitory effect in Section were diluted to concentrations of 0.5 μM, 1 μM, 10 μM, and 100 μM. Thereafter, the degree of inhibition of HAT activity was determined in the same manner as in Section.
Synthesis Examples 1 to 19 were diluted to 100 μM, and the degree of inhibition of HAT p300 activity was then determined in the same manner as in Section. Here, the tissues were treated with C646 and Candidate 12 (HAT-12) as the control, instead of Synthesis Examples 1 to 19.

Sequence of HAT p300 (histone acetyltransferase p300) (Q09472 whole entry): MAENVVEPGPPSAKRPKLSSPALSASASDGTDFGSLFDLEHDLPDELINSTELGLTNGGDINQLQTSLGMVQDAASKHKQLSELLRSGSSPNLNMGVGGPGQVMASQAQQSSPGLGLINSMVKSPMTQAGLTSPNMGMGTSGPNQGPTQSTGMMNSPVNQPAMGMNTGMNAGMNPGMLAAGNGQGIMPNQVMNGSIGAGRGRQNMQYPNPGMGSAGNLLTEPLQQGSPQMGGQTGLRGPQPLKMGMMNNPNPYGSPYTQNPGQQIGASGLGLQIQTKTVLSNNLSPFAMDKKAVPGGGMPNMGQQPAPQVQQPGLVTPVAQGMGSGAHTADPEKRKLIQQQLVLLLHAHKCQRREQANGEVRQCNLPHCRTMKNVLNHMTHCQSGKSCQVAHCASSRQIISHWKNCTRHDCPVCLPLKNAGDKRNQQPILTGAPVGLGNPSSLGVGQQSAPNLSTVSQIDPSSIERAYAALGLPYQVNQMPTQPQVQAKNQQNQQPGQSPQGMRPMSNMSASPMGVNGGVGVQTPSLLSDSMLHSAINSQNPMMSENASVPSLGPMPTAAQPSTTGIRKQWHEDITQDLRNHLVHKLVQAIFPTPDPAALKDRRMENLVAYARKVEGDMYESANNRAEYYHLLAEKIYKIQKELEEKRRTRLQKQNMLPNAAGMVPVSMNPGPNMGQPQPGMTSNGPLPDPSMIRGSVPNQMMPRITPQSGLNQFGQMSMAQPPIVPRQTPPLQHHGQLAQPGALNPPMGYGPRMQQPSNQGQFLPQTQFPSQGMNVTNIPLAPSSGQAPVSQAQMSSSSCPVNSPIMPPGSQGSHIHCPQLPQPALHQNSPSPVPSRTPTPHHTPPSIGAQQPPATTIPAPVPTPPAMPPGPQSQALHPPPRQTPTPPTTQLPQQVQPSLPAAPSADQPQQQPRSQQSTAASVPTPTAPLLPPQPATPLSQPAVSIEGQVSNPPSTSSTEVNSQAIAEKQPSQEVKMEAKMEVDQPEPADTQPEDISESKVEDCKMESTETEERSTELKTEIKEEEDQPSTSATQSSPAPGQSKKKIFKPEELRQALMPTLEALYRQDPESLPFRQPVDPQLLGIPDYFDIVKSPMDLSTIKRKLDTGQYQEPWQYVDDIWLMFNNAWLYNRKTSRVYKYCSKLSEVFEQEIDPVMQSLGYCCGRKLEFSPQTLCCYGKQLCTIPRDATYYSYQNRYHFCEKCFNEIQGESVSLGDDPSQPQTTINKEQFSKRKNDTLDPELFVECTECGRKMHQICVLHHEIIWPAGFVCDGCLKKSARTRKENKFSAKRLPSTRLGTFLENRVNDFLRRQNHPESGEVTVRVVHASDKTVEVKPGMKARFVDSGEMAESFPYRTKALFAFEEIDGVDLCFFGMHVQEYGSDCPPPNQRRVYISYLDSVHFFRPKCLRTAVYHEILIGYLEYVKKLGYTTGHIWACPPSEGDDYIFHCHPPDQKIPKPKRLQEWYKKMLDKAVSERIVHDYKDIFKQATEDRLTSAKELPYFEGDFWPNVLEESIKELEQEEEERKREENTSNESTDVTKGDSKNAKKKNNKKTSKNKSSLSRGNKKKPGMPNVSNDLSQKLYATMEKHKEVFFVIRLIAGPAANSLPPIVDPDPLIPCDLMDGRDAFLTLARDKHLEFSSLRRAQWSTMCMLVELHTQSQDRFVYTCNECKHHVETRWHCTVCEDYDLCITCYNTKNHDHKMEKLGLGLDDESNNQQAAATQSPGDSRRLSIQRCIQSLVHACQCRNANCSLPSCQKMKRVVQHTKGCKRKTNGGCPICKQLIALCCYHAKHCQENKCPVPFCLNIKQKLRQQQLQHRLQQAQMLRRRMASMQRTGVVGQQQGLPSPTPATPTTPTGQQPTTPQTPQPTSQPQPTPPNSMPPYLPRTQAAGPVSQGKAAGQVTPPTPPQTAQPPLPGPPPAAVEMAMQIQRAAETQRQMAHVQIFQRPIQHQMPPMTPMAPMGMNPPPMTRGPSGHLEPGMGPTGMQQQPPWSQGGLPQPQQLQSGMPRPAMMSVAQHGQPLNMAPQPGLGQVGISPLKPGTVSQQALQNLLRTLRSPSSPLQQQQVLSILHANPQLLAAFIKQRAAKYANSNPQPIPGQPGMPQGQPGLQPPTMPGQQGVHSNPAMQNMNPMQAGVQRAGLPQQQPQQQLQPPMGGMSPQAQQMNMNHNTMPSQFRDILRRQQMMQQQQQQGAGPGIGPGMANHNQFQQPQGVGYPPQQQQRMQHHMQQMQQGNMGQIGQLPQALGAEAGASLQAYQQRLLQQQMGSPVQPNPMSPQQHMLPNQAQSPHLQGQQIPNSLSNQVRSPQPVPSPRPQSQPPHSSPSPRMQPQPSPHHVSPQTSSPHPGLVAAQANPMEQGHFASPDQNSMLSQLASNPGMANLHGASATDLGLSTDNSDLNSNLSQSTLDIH

Structure (SMILES) | HAT p300 activity inhibitory effect | IC50 (secondary screening, tested at 0.5, 1, 10 and 100 μM) [µM]
COc1cc(/C=N/Cc2ccc(C(=O)O)cc2)cc(Cl)c1OCc1cccc(Cl)c1 [Synthesis Example 19, (E)-4-(((3-chloro-4-((3-chlorobenzyl)oxy)-5-methoxybenzylidene)amino)methyl)benzoic acid] | ≥ 90% | 
COc1cc(/C=N/CCN2CCCCC2)cc(Cl)c1OCc1cccc(Cl)c1 [Candidate 12] | approximately 80% | 0.953
